Tests used:
Assay type in all cases: in vivo
Abutilon theophrasti [1] = assay: Post-emergence herbicidal activity, glasshouse pot test; set-up: key: 0 = no damage to plant, 5 = total damage to plant; conditions: Application post-emergence, rate 1000 g/ha, evaluated after 13 days
Summary of the method: (§1)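 Seeds sown in standard soil in pots, grown 8 days in glasshouse (24/16 °C day/night, 14 h light, 65% humidity), then sprayed with aqueous solution from active ingredient formulated in acetone/water (50:50) with 0.5% Tween 20. Plants regrown under same conditions, watered twice daily; damage scored after 13 days (0 none–5 total).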

Echinochloa crus-galli [2] = assay: as above; set-up: key: 0 = no damage to plant, 5 = total damage to plant; conditions: Application post-emergence, rate 1000 g/ha, evaluated after 13 days
Summary of the method: as §1

Amaranthus retroflexus [3] = assay: as above; set-up: key: 0 = no damage to plant, 5 = total damage to plant; conditions: Application post-emergence, rate 1000 g/ha, evaluated after 13 days
Summary of the method: as §1

zea mays [4] = assay: as above; set-up: key: 0 = no damage to plant, 5 = total damage to plant; conditions: Application post-emergence, rate 1000 g/ha, evaluated after 13 days
Summary of the method: as §1

Setaria faberi [5] = assay: as above; set-up: key: 0 = no damage to plant, 5 = total damage to plant; conditions: Application post-emergence, rate 1000 g/ha, evaluated after 13 days
Summary of the method: as §1

Alopecurus myosuroides [6] = assay: as above; set-up: key: 0 = no damage to plant, 5 = total damage to plant; conditions: Application post-emergence, rate 1000 g/ha, evaluated after 13 days
Summary of the method: as §1

Abutilon theophrasti [7] = assay: Pre-emergence herbicidal activity, glasshouse pot test; conditions: pre-emergence spray, rate 1000 g/ha, evaluated after 13 days, scale 0-5
Summary of the method: (§2)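 Pots of seeded soil were sprayed one day after sowing (pre-emergence) with compound formulated in acetone/water 50:50 with 0.5% Tween 20. Plants were grown in a glasshouse at 24/16 °C day/night, 14 h light, 65% humidity. Damage was scored after 13 days on a 0–5 scale (5 = total damage).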

Echinochloa crus-galli [8] = assay: as above; conditions: pre-emergence spray, rate 1000 g/ha, evaluated after 13 days, scale 0-5
Summary of the method: as §2

Amaranthus retroflexus [9] = assay: as above; conditions: pre-emergence spray, rate 1000 g/ha, evaluated after 13 days, scale 0-5
Summary of the method: as §2

zea mays [10] = assay: as above; conditions: pre-emergence spray, rate 1000 g/ha, evaluated after 13 days, scale 0-5
Summary of the method: as §2

Setaria faberi [11] = assay: as above; conditions: pre-emergence spray, rate 1000 g/ha, evaluated after 13 days, scale 0-5
Summary of the method: as §2

Alopecurus myosuroides [12] = assay: as above; conditions: pre-emergence spray, rate 1000 g/ha, evaluated after 13 days, scale 0-5
Summary of the method: as §2

Compound	ABUTH herbicidal damage score (Abutilon theophrasti [1])	ECHCG herbicidal damage score (Echinochloa crus-galli [2])	AMARE herbicidal damage score (Amaranthus retroflexus [3])	ZEAMX herbicidal damage score (zea mays [4])	SETFA herbicidal damage score (Setaria faberi [5])	ALOMY herbicidal damage score (Alopecurus myosuroides [6])	ABUTH damage score, application pre-emergence (Abutilon theophrasti [7])	ECHCG damage score, application pre-emergence (Echinochloa crus-galli [8])	AMARE damage score, application pre-emergence (Amaranthus retroflexus [9])	ZEAMX damage score, application pre-emergence (zea mays [10])	SETFA damage score, application pre-emergence (Setaria faberi [11])	ALOMY damage score, application pre-emergence (Alopecurus myosuroides [12])
CC1=C(Cl)C(=O)N(c2cc(C(C)(C)C)c(Cl)nn2)C1O (stereo not drawn) [BF1]	5	5	5	2	4	4	4	2	5	1	3	2
COc1nnc(N2C(=O)C(Cl)=C(C)C2O)cc1C (stereo not drawn) [BF6]	5	5	5	4	5	5	4	5	5	2	3	3
CC1=C(Cl)C(=O)N(c2ccc(C(F)(F)F)nn2)C1O (stereo not drawn) [BF7]	2	3	2	2	4	2	4	3	4	1	4	2
COc1ccc(N2C(=O)C(Cl)=C(C)C2O)nn1 (stereo not drawn) [BF8]	5	5	5	1	5	4	5	4	1	0	3	2
CC1=C(Cl)C(=O)N(c2cc(C(C)C)c(Cl)nn2)C1O (stereo not drawn) [BF10]	5	5	5	3	5	5	4	5	3	2	5	4
CC1=C(Cl)C(=O)N(c2cc(C(C)(C)F)c(Cl)nn2)C1O (stereo not drawn) [BF11]	2	3	2	1	3	2	0	0	0	0	0	0
CC1=C(Cl)C(=O)N(c2cc(C(C)(F)F)c(Cl)nn2)C1O (stereo not drawn) [BF12]	4	5	5	3	5	4	3	4	5	2	4	3
CCc1cc(N2C(=O)C(Cl)=C(C)C2O)nnc1Cl (stereo not drawn) [BF13]	3	5	3	1	5	4	2	4	4	1	5	2
CC1=C(Cl)C(=O)N(c2ccc(C#N)nn2)C1O (stereo not drawn) [BF14]	1	2	2	1	3	2	5	2	4	0	0	1
COC1=C(C)C(O)N(c2cc(C)c(OC)nn2)C1=O (stereo not drawn) [BG1]	5	5	5	4	5	4	2	4	5	1	2	3
COC1=C(C)C(O)N(c2cc(C(C)(C)C)c(Cl)nn2)C1=O (stereo not drawn) [BI1]	5	5	5	4	5	5	4	5	3	4	5	4
COC1=C(C)C(O)N(c2cc(C(C)C)c(Cl)nn2)C1=O (stereo not drawn) [BI2]	5	5	5	3	5	5	4	5	4	3	5	4
COC1=C(C)C(O)N(c2cc3c(nn2)CCCC3)C1=O (stereo not drawn) [BI3]	2	3	3	1	5	3	0	4	2	0	0	1
CCOC(=O)c1ccc(N2C(=O)C(OC)=C(C)C2O)nn1 (stereo not drawn) [BI4]	0	0	0	0	0	0	0	0	0	0	0	0
COC1=C(C)C(O)N(c2cc(C)c(C#N)nn2)C1=O (stereo not drawn) [BI5]	0	0	0	0	0	0	0	0	0	0	0	0
COC1=C(C)C(O)N(c2ccc(C(=O)NC(C)(C)C)nn2)C1=O (stereo not drawn) [BI6]	5	5	5	4	5	4	5	4	5	2	5	4
